The test system of data set [1] is genetically hypertensive rat (SHR). The data set is described as follows: Antihypertensive activity in the genetically hypertensive rat (SHR), oral, arterial pressure measured 3 hours later. The following applies: SHR male rats, groups of 10, 3 hours after oral treatment, read-out: Antihypertensive activity (SHR) M.A.D. (minimum dose significantly reducing the mean arterial pressure). Format: in vivo. The protocol: The antihypertensive activity was investigated in the genetically hypertensive rat (SHR) whose arterial pressure was regularly monitored: hypertensive male rats having a particularly stable arterial pressure are grouped by 10 and treated orally with the compounds being studied Their arterial pressure is measured 3 hours later.
(§1) The results obtained by these two methods in the case of a few products of the invention and in the case of ketanserin (3-[2-[4-(4-fluorobenzoyl)-1-piperidinyl]ethyl]quinazolin-2,4-(1H,3H)-dione), taken as control, are listed in Table I.

In another data set the test system is isolated rat aorta. Put plainly: Antagonism towards serotonin in vitro on the isolated rat aorta (serotonin-triggered contraction). The following applies: contraction by serotonin 20 μM, product added 10 min after serotonin, left 15 min, minimum of 3 aortas, read-out: Isolated rat aorta antiserotonin activity IC 50. The protocol:
The thoracic aorta is rapidly removed. A fragment of approximately 1 cm is cut into a spiral and then placed in a cell containing 20 ml of nutrient medium (Krebs-Henseleit) kept at 37° C. and oxygenated (95% O2, 5% CO2). The contraction is recorded using an isotonic strain gauge. After a rest of 45 min, supramaximal contractions are triggered by adding serotonin (20 μM) to the survival medium. A plateau is generally reached after 10 min of contact, the latter not exceeding 25 min. A rest of 30 min and numerous rinsings separate each contraction. The products are added 10 min after the serotonin and left for 15 min, at the end of which period the inhibition is measured. The inhibiting concentration 50 (IC 50) is determined for each compound being studied on a minimum of 3 aortas.
as §1

A short description of data set [2]: Toxicity, 50 lethal dose on the rat using the oral route. The following applies: in vivo. How it is done: By way of illustration, the 50 lethal dose determined on the rat using the oral route, in the case of the compound described in Example 1, is 1,700 mg/kg, that is 170 times the active dose in this species.

As a reminder, the LD50 is the dose at which mortality reaches 50%.

`CN(C)C(=NCCCN1CCC(c2noc3cc(F)ccc23)CC1)NC#N` [Example 21, N'-Cyano-N,N-dimethyl-N"-[3-[4-(6-fluoro-1,2-benzisoxazol-3-yl)-1-piperidinyl]propyl]guanidine]: the minimal effective dose in data set [1] was found to be 2 mg/kg. Further, the IC50 in the data set on isolated rat aorta is 100 nM.
Taken in the same sequence, the figures for `CN=C(NC#N)NCCCN1CCC(c2noc3cc(F)ccc23)CC1` [Example 19, N-Cyano-N'-[3-[4-(6-fluoro-1,2-benzisoxazol-3-yl)-1piperidinyl]propyl]-N"-methylguanidine] were 0.5 mg/kg and 50 nM.
Taken in the same sequence, the figures for `CN=C(NC#N)NCCN1CCC(c2noc3cc(F)ccc23)CC1` [Example 18, N-Cyano-N'-[2-[4-(6-fluoro-1,2-benzisoxazol-3-yl)-1-piperidinyl]ethyl]-N"-methylguanidine] were 2 mg/kg and 90 nM.
`CNC(=C[N+](=O)[O-])NCCN1CCC(c2noc3cc(F)ccc23)CC1` [Example 26, N-[2-[4-(6-Fluoro-1,2-benzisoxazol-3-yl)-1-piperidinyl]ethyl]-N'-methyl-2-nitro-1,1-ethenediamine]: in data set [1], the minimal effective dose was 5 mg/kg. In addition, in the data set with isolated rat aorta, the IC50 was determined as 380 nM.
As for `CCNC(=NCCCN1CCC(c2noc3cc(F)ccc23)CC1)NC#N` [Example 20, N-Cyano-N'-ethyl-N"-[3-[4-(6-fluoro-1,2-benzisoxazol-3-yl)-1-piperidinyl]propyl]guanidine], the minimal effective dose in data set [1] was 0.5 mg/kg. In the data set with isolated rat aorta, the IC50 turned out to be 40 nM.
Taken in the same sequence, the figures for `CN=C(NC#N)NCCCCN1CCC(C(=O)c2ccc(F)cc2)CC1` [Example 14, N-Cyano-N'-[4-[4-(4-fluorobenzoyl)-1-piperidinyl]butyl]-N"-methylguanidine] were 10 mg/kg and 670 nM.
The corresponding values for `CN=C(NC#N)NCCCN1CCC(C(=O)c2ccc(F)cc2)CC1` [Example 12, N-Cyano-N'-[3-[4-(4-fluorobenzoyl)-1-piperidinyl]propyl]-N"-methylguanidine] are 5 mg/kg and 170 nM.
Taken in the same sequence, the figures for `O=C(c1ccc(F)cc1)C1CCN(CCn2c(=O)[nH]c3ccccc3c2=O)CC1` [Ketanserin, 3-[2-[4-(4-fluorobenzoyl)-1-piperidinyl]ethyl]quinazolin-2,4-(1H,3H)-dione, reference compound] were 25 mg/kg and 150 nM.
As to `CNC(=C[N+](=O)[O-])NCCN1CCC(C(=O)c2ccc(F)cc2)CC1` [Example 24, N-[2-[4-(4-Fluorobenzoyl)-1-piperidinyl]ethyl]-N'-methyl-2-nitro-1,1-ethenediamine], in data set [1], the minimal effective dose worked out at 10 mg/kg. The IC50 in the data set with isolated rat aorta was 2900 nM.
Turning to `CNC(=NC#N)NCCN1CCC(C(=O)c2ccc(F)cc2)CC1` [Example 1, N-Cyano-N'-[2-[4-(4-fluorobenzoyl)-1-piperidinyl]ethyl]-N"-methylguanidine], in data set [1], the minimal effective dose amounted to 10 mg/kg. Further, in the data set on isolated rat aorta, the IC50 was determined as 530 nM. In data set [2] (oral route), this molecule displayed an LD50 of 1700 mg/kg. For the same molecule, the selectivity ratio in data set [2] (oral, LD50 / active dose, read-out: 50 lethal dose as multiple of the active dose in this species) came out at 170.
`CN(C)C(=NCCN1CCC(C(=O)c2ccc(F)cc2)CC1)NC#N` [Example 10, N'-Cyano-N,N-dimethyl-N"-[2-[4-(4-fluorobenzoyl)-1-piperidinyl]ethyl]guanidine]: in data set [1], the minimal effective dose was determined as 10 mg/kg. In addition, in the data set on isolated rat aorta, the IC50 came to 460 nM.
Take `CN(C)C(=NC#N)NCCCN1CCC(C(=O)c2ccc(F)cc2)CC1` [Example 13]: the minimal effective dose in data set [1] worked out at 5 mg/kg. The IC50 in the data set on isolated rat aorta came to 1950 nM.
The corresponding values for `N#CNC(=N)NCCCN1CCC(c2noc3cc(F)ccc23)CC1` [Example 22, N-Cyano-N'-[3-[4-(6-fluoro-1,2-benzisoxazol-3-yl)-1-piperidinyl]propyl]guanidine] are 5 mg/kg and 20 nM.

For the origin of these results see patent publication US5001134A, “Piperidines, processes of preparation and medications containing them” (Lipha, Lyonnaise Industrielle Pharmaceutique, priority 1989, dated 1991).
